Holding throughout (format): functional
A short description of assay [1]: Inhibition of Aspergillus fumigatus-mediated dendritic cell maturation assessed as decreased CD40 expression at 10 uM.
Assay [2] is described as follows: Inhibition of Aspergillus fumigatus-mediated dendritic cell maturation assessed as decreased CD86 expression at 10 uM.
Assay [3] deals with Aspergillus fumigatus. Nature of the assay: Effect on polymorphonuclear neutrophil killing of Aspergillus fumigatus assessed as survival rate of fungi at 10 ug/ml (reference value: 53% +/- 11%).
The nature of assay [4]: Induction of oxidative burst of polymorphonuclear neutrophil co-cultured with Aspergillus fumigatus germlings at 10 uM after 120 minutes relative to untreated control.
Assay [5] is described as follows: Induction of oxidative burst of polymorphonuclear neutrophil co-cultured with Aspergillus fumigatus germlings at 10 uM after 60 minutes relative to untreated control.
Assay [6] in a line: Inhibition of Aspergillus fumigatus-mediated dendritic cell maturation assessed as decreased CD1a expression at 10 uM.
Assay [7] can be described thus: Inhibition of Aspergillus fumigatus-mediated dendritic cell maturation assessed as decreased CD83 expression at 10 uM.
Assay [8] in a line: Induction of IL-2 expression in […] dendritic cell co-cultured with Aspergillus fumigatus germ tube at 10 uM after 7 days by RT-PCR.
Assay [9] is described as follows: Induction of TNF-alpha expression in […] dendritic cell co-cultured with Aspergillus fumigatus germ tube at 10 uM after 7 days by RT-PCR.
Assay [10] is described as follows: Inhibition of Aspergillus fumigatus-mediated dendritic cell maturation assessed as decreased CD80 expression at 10 uM.
Assay [11] relates to Aspergillus fumigatus. Nature of the assay: Effect on polymorphonuclear neutrophil killing of Aspergillus fumigatus assessed as survival rate of fungi (reference value: 53% +/- 11%).

By inhibition is commonly meant the change of the read-out against control, counted positive when it falls.

For `COc1c(C)c2c(c(O)c1C/C=C(\C)CCC(=O)O)C(=O)OC2` [MYCOPHENOLIC ACID], the inhibition at 10 µM turned out to be 39.3% in [1]; 43.8% in [2]; 68.8% in [6]; 21.1% in assay [7]; 46.7% in [10]. For the same molecule, in the assay on Aspergillus fumigatus [3], the survival at 10 µg/mL worked out at 57%. The results for the “fold change (FC)” value in assay [4] and in [5] were 2.8 and 3.8, respectively. Also, the values for the Activity in assay [8] and in assay [9] were 94% and 52%, respectively.

On to `CCCCCCCCCCCCCC(=O)O[C@@H]1[C@@H](C)[C@@]2(O)[C@@H](C=C(CO)C[C@]3(O)C(=O)C(C)=C[C@@H]23)[C@@H]2C(C)(C)[C@]12OC(C)=O` [PHORBOL MYRISTATE ACETATE], for which the Survival in the assay with Aspergillus fumigatus [11] is on record as 26%.

The record behind these values is ChEMBL document CHEMBL1275430, “Impact of mycophenolic acid on the functionality of human polymorphonuclear neutrophils and dendritic cells during interaction with Aspergillus fumigatus” (2008).
